# According to patent US20040072746A1, “Inhibitors of monocarboxylate transport” (priority 2001, published 2004):
# Tests used:
# MCT1 = molecular target: T1, MCT1 (Homo sapiens, UniProt P53985, D490E); assay: MCT filter binding assay, yeast membranes, radioligand specific binding; parameters: made in house; host or cells: Saccharomyces cerevisiae BY4742 (jen1 deletion), membrane preparation; plasmid pACES14-hMCT1; settings: ~2.5 nM radioligand
# T1 sequence (P53985 1-500 D490E): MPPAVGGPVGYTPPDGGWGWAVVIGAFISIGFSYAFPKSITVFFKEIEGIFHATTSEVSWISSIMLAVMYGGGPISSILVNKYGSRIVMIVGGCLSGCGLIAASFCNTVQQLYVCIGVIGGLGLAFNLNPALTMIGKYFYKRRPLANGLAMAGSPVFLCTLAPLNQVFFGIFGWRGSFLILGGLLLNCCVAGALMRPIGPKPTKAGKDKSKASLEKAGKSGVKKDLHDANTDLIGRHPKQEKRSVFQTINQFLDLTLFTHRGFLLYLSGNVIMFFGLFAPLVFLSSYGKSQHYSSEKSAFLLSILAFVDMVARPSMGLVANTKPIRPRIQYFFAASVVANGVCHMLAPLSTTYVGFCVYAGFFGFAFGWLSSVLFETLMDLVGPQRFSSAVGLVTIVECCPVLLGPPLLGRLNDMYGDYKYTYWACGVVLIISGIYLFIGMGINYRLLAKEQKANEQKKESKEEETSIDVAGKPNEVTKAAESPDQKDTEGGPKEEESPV
# Method: (§1) For yeast cells transformed with expression plasmids containing the human MCT 1-4 ORFs the ability of membrane preparations to bind radioligand was determined using a single ligand concentration/multi protein concentration binding assay. This generated an estimate of the amount of active binding protein present in each membrane preparation. The ligand concentration used will give an estimate of Bmax that is approximately 90% of the true value. 10 μl of ligand A, B or C that had been diluted 50 fold with assay buffer (50 mM HEPES, 0.1 mM EDTA, 0.15 M NaCl, pH 7.5, 0.5% BSA) was dispensed into wells of a polypropylene microtitre plate. This gives a final radiolabelled ligand concentration of ˜2.5 nM. […] The membranes were diluted to give a known amount/180 μl assay buffer. This is typically in the […] range. For the membranes with high binding site number a more dilute membrane preparation should be added. 180 μl of each membrane solution was then added to each well and incubated at 2 hours at room temperature with shaking. The membranes were harvested onto GF-B filter plates and washed with assay buffer without BSA, dried, scintillant added and counts detected using the relevant program for each ligand on a Packard Top Count plate reader.
# [1] = MCT filter binding assay, yeast membranes transformed with vector only; settings: ~2.5 nM radioligand
# Method: as §1
# Jurkat T-cell membranes = type: binding, human
# Method: Cells were harvested by centrifugation at 1500 g for 10 minutes. The cell pellets were washed twice with phosphate buffered saline (PBS) and centrifuged as above. The final cell pellet was resuspended in lysis buffer (50 mM HEPES (pH 7.8), 50 mM KCl, 10% glycerol, 0.1 mM EDTA, 1 mM DTT) and lysed by nitrogen cavitation. Unlysed cells and nuclei were removed by centrifugation at 1500 g for 10 minutes. The supernatant was then centrifuged at 100,000 g for 30 minutes at 4° C., and the pellet resuspended and homogenised in assay buffer (50 mM HEPES (pH 7.5), 1 mM EDTA, 150 mM NaCl). Aliquots of membrane preparation were stored at −80° C. until use.
# Frozen Jurkat cell membranes were thawed on ice and then homogenised. Wheatgerm agglutinin-linked Scintillation Proximity Assay beads (Amersham) were rehydrated in assay buffer to a concentration of 100 mg/ml. 2 ml of Jurkat membranes were added per 0.5 ml (50 mg) of SPA beads and incubated overnight with constant agitation to allow the beads to coat with Jurkat membranes. […] 10 μl of test compound and 10 μl of radioligand were incubated with 180 μl of SPA beads and membranes (0.04 mg beads). […] The plates were incubated for 3 hours at room temperature before quantitation of radioactivity proximal to the SPA beads by scintillation counting.
# human MCT4 = molecular target: T2, human MCT4 (Homo sapiens, UniProt O15427); assay: MCT filter binding assay, yeast membranes, radioligand specific binding; settings: ~2.5 nM radioligand
# T2 construct: from the full length copy and subcloned into the S. cerevisiae expression plasmid pACES14; made in house; host or cells: Saccharomyces cerevisiae BY4742 (jen1 deletion), membrane preparation; plasmid pACES14-hMCT4
# T2 sequence (O15427 1-465): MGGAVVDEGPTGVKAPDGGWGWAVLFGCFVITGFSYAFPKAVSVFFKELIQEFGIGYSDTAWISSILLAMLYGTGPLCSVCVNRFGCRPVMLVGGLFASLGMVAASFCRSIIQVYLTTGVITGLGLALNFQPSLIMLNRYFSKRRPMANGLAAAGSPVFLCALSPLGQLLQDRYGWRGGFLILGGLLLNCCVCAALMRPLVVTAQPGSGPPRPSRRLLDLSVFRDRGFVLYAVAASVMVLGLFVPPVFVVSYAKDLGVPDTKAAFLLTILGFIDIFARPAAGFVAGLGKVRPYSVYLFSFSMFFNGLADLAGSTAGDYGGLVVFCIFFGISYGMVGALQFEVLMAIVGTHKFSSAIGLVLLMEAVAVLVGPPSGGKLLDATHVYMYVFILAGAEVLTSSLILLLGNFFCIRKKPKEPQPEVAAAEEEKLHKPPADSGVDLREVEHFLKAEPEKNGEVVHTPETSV
# Method: as §1
smiles,measurement,setting,value
"CC(C)Cc1nn(C)c(=O)c2c(SCCCO)n(Cc3ccccc3[125I])cc12 [Ligand A, 2,6-Dihydro-7-[(3-hydroxypropyl)thio]-6-[(2-[^125I]iodophenyl)methyl]-2-methyl-4-(2-methylpropyl)-1H-pyrrolo[3,4-d]pyridazin-1-one]",Specific binding (cpm) Average,MCT1; MCT1 (2 ug),88841 cpm
same,Specific binding (cpm) Average,MCT1; MCT1 (20 ug),177453 cpm
same,Specific binding (cpm) Average,[1]; vector (2 ug),1735 cpm
same,Specific binding (cpm) Average,[1]; vector (20 ug),0 cpm
same,"125I-ligand A binding (cpm), Specific binding (Total - Non-specific)",Jurkat T-cell membranes,1991 cpm
same,"125I-ligand A binding (cpm), Total binding","Jurkat T-cell membranes; approximately 0.1 nM radioligand, vehicle alone",2490 ± 32 cpm
same,"125I-ligand A binding (cpm), Non-specific binding",Jurkat T-cell membranes; in the presence of 1 μM Ligand 1,499 ± 20 cpm
same,Specific binding (cpm) Average,human MCT4; MCT4 (2 ug),405 cpm
same,Specific binding (cpm) Average,human MCT4; MCT4 (20 ug),872 cpm
